Numbered stars: 1 amine (or outer) side, 2 acyl side, 3 side chain; on linkers, the order of the positions; unused ones are H or OH. Square brackets hold non-standard residues; d marks the D form. Ends that are not written are not given here. Peptide text beside a SMILES is read from it. * marks the point of attachment. X3 = O=C([C@H](Cc1c[nH]cn1)N(Cc1ccc(Cl)cc1)[*:1])[*:2]; Fmoc = O=C(OCC1c2ccccc2-c2ccccc21)*
Legend:
chicken gizzard Tpm = target: T1, chicken gizzard Tpm (Gallus gallus, UniProt P19352); assay: Binding to immobilized Tpm in a 96 well plate (biotin-HKa competition or direct binding); details: 10 μM ZnCl2; for IC50: displacement of 10 nM biotinylated-HKa; for binding to immobilized Tpm / displacement of biotin-HKa (in words): 10 nM biotin-HKa, 200 ng chicken gizzard Tpm
T1 construct: purchased Sigma; host or cells: chicken gizzard (tissue-derived, as the name says)
Procedure: Plates are coated at room temperature with chicken gizzard Tpm (Sigma) in Tris buffer-saline (TBS) (200 ng/well). After incubation for 2 hours, wells are washed with TBS, then 1% BSA/TBS/Tween-20 is added to each well and incubate at 37° C. for two hours. HKa (Enzyme Laboratories) that had been previously biotinylated with EZ-Link (Pierce) according to the manufacturers instructions, is added to the plate at a concentration of 10 nM together with ZnCl2 (10 μM) and the appropriate concentration of the protein, domain or peptide competitor. The plates are incubated at room temperature and then washed with TBS/Tween-20. Avidin-HRP is added, incubated for 20 minutes at room temperature, washed with TBS/Tween-20 and the chromogenic substrate is added. The reaction is stopped with sulfuric acid and the plate read at 490 nm.
(§1) The IC50 for the displacement of biotinylated-HKa for the peptides shown in Table 5 was determined as follows: 10 nM biotin-HKa is added to a 96 well plate previously coated with 200 ng of chicken gizzard Tpm in the presence of 10 μM ZnCl2. Increasing amounts of the peptides are added to the wells. The remaining biotin-HKa bound to Tpm was detected using avidin-HRP and a chromogenic substrate. A Kd was determined by non-linear regression analysis of the empirical data. The effect on the Matrigel Plug assay was determined as follows: Matrigel (0.5 mL) containing 400 ng/ml of bFGF, 50 μg/ml heparin with or without the peptide (300 μM) or saline buffer are injected in the flanks of a mouse. After five days, the plugs are removed and the plugs scanned.
The N-terminus of the pentapeptide HHPHG has been derivatized (capped) in an attempt to increase the pentapeptides' affinity to Tpm by increasing productive molecular contacts (or interactions). […] The IC50 for the displacement of biotinylated-HKa for the capped peptides shown in the table was determined as follows: 10 nM biotin-HKa was added to a 96 well plate previously coated with 200 ng of chicken gizzard Tpm in the presence of 10 μM ZnCl2. Increasing amounts of the peptides were added to the wells. The remaining biotin-HKa bound to Tpm was detected using avidin-HRP and a chromogenic substrate. A Kd was determined by non-linear regression analysis of the empirical data

[1] = tested on: bFGF-induced angiogenesis; assay: Matrigel plug assay (bFGF-induced angiogenesis); format: in vivo, mouse; details: 400 ng/ml bFGF, five days, plugs scanned; for Inhibits Angiogenesis (Matrigel ® assay): peptide 300 μM, 50 μg/ml heparin
Procedure: This assay is performed essentially as described by Passaniti et al. (Lab Invest. 67:519-528 (1992). Ice-cold Matrigel® (e.g., 500 μL) (Collaborative Biomedical Products, Inc., Bedford, Mass.) is mixed with heparin (e.g., 50 μg/ml), FGF-2 (e.g., 400 ng/ml) and the compound to be tested. In some assays, bFGF may be substituted with tumor cells as the angiogenic stimulus. The Matrigel® mixture is injected subcutaneously into 4-8 week-old athymic nude mice at sites near the abdominal midline, preferably 3 injections per mouse. The injected Matrigel® forms a palpable solid gel. Injection sites are chosen such that each animal receives a positive control plug (such as FGF-2+heparin), a negative control plug (e.g., buffer+heparin) and a plug that includes the compound being tested for its effect on angiogenesis, e.g., (FGF-2+heparin+compound). All treatments are preferably run in triplicate. Animals are sacrificed by cervical dislocation at about 7 days post injection or another time that may be optimal for observing angiogenesis. The mouse skin is detached along the abdominal midline, and the Matrigel® plugs are recovered and scanned immediately at high resolution. Plugs are then dispersed in water and incubated at 37° C. overnight. Hemoglobin (Hb) levels are determined using Drabkin's solution (e.g., obtained from Sigma) according to the manufacturers' instructions. The amount of Hb in the plug is an indirect measure of angiogenesis as it reflects the amount of blood in the sample. In addition, or alternatively, animals may be injected prior to sacrifice with a 0.1 ml buffer (preferably PBS) containing a high molecular weight dextran to which is conjugated a fluorophore. The amount of fluorescence in the dispersed plug, determined fluorimetrically, also serves as a measure of angiogenesis in the plug. Staining with mAb anti-CD31 (CD31 is “platelet-EC adhesion molecule or PECAM”) may also be used to confirm neovessel formation and microvessel density in the plugs.
as §1
These cyclic peptides were also tested for their ability to inhibit bFGF-induced angiogenesis in vivo in a Matrigel plug assay. Matrigel (0.5 mL) containing 400 ng/ml of bFGF, 50 μg/ml heparin with or without 10 μM peptide (ATN-310, ATN-311 or ATN-312 or saline buffer for the controls, was injected subcutaneously in the hind flanks of a mouse as described above. All the treatments were done in triplicate. After five days, the vascularization of the Matrigel plug was determined fluorometrically after i.v. injection of 100 μl of dextran conjugated with fluorescein isothiocyanate (FITC-dextran; MW 250,000, Sigma). Five days after injection, the plugs were removed and subjected to mincing of tissue which releases vascular FITC-dextran into the supernatant. Samples of supernatant were subjected to fluorimetry as a measure of vascularity of the plug. The amount of vasculature (neovessels) is directly proportional to the fluorescent signal which reflects the total vascular blood volume of the plug. The results are shown in Table 7, below and expressed as arbitrary fluorescence units or as % inhibition relative to the negative control.

MatLyLu cells = assay: Matrigel/MatLyLu model (Matrigel plug with tumor cells); format: in vivo; details: 700 μM ATN230 or 900 μM ATN294, 2×10^6 MatLyLu cells in mouse flank, seven days
Source text: In this assay, tumor cells, for example 1-5×10^6 cells of the 3LL Lewis lung carcinoma or the rat prostate cell line MatLyLu, are mixed with Matrigel® and then injected into the flank of a mouse following the protocol described in Sec. B., above. A mass of tumor cells and a powerful angiogenic response can be observed in the plugs after about 5 to 7 days. The anti-tumor and anti-angiogenic action of a compound in an actual tumor environment can be evaluated by including it in the plug. Measurement is then made of tumor weight, Hb levels or fluorescence levels (of a dextran-fluorophore conjugate injected prior to sacrifice). To measure Hb or fluorescence, the plugs are first homogenize with a tissue homogenizer.

[2] = target: T2, D5 domain of human kininogen, HKa (Homo sapiens, UniProt P01042); assay: Binding to HKa D5 (affinity column)
T2 construct: made in house
T2 sequence (P01042 402-526): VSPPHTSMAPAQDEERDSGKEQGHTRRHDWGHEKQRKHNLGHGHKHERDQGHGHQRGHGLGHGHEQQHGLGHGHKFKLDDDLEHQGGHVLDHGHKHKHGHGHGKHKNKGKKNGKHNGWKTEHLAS
Procedure: Chicken gizzard Tpm was partially digested with Chymotrypsin as described for FIG. 19 for 100 minutes so that a 20 kDa fragment was enriched. HK-D5 had previously immobilized in an activated Sepharose (CNBr-activated Sepharose 4 B, Amersham Biosciences). The chymotryptic fragments were incubated with the HK-D5-Sepharose resin in TBS containing 10 μM ZnCl2, washed extensively in the same buffer and eluted in 2 M NaCl. The samples were run in a 10% NuPage gel (Invitrogen).
The present inventors discovered the AALBP by passing a chymotryptic digest of cTPM1 over an affinity column comprising an antiangiogenic polypeptide, specifically, the D5 domain of human kininogen, HKa. Material that bound to the column was subjected to N-terminal sequencing. The sequence was determined to be SESVKEAQE, corresponding to residues 61-69 of cTPM1 (SEQ ID NO: 1) and residues 1-9 of SEQ ID NO:2.
The fragment was partially purified by passing the chymotryptic digest through an affinity column of Sepharose-HKa-D5. The column was extensively washed and eluted with high salt buffer. The resulting material was run on an SDS gel which appears in (FIG. 20). […]

[3] = Table 6, N-capped HHPHG peptides

T1 sequence (P19352 1-284 isoform P19352-2): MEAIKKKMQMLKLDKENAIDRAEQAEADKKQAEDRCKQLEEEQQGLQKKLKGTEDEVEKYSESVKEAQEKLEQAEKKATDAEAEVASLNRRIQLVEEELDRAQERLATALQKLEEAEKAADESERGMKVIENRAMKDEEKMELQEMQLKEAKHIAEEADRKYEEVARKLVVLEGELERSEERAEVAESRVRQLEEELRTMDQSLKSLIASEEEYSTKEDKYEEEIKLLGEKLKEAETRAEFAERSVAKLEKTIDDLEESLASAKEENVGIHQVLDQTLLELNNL
T1 sequence (P04268 1-284 isoform P04268-2 F73S/I172L/T199L/N203E/L204A partner): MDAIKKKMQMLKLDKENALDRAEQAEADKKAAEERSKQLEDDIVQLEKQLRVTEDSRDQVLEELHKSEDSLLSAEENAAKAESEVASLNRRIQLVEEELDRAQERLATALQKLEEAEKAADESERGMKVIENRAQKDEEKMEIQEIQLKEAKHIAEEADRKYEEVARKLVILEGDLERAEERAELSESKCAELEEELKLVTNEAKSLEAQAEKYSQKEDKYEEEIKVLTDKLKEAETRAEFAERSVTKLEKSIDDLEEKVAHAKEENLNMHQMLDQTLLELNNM

Molecule: Ac-HHPHG-NH2 [ATN239, c-HHPHG-c]
- IC50 (chicken gizzard Tpm; Table 5): > 10000 µM

Molecule: HPPHG [ATN228, HPPHG]
- binding to immobilized Tpm / displacement of biotin-HKa (in words) (chicken gizzard Tpm): bound
- inhibition of angiogenesis in the Matrigel plug model (in words) ([1]; 20 μg peptide): inhibited angiogenesis
- Inhibits Angiogenesis (Matrigel ® assay) [1]: Yes

Molecule: Ac-HPPHG-NH2 [ATN231, c-HPPHG-c]
- IC50 (chicken gizzard Tpm; Table 5): > 10000 µM

Molecule: HHPHG [ATN230, HHPHG]
- inhibition of MatLyLu growth, plug weight (in words) (MatLyLu cells): inhibited MatLyLu growth
- inhibition of MatLyLu growth, plug weight (in words) (MatLyLu cells; listed as HHPHG): anti-tumor activity
- Inhibits Angiogenesis (Matrigel ® assay) [1]: Yes
- Inhibits Angiogenesis (Matrigel ® assay) ([1]; listed as HHPHG): substantial activity

Molecule: SEQ ID NO:2: chymotryptic fragment, residues 61-214 of chicken gizzard cTPM1, about 17 kDa
- binding to HKa D5 (in words) [2]: binds

Molecule: AHPHG [ATN294]
- inhibition of MatLyLu growth, plug weight (in words) (MatLyLu cells): not
- inhibition of MatLyLu growth, plug weight (in words) (MatLyLu cells; listed as AHPHG): significantly less anti-tumor activity
- binding to immobilized Tpm / displacement of biotin-HKa (in words) (chicken gizzard Tpm): abolished

Molecule: HKNKGKKN [ATN16, HKNKGKKN]
- IC50 (chicken gizzard Tpm; Table 5): 99.5 µM
- Inhibits Angiogenesis (Matrigel ® assay) [1]: Yes

Molecule: Ac-HHPHG [ATN269, c-HHPHG]
- IC50 (chicken gizzard Tpm; Table 5): > 10000 µM

Molecule: TRRHDWGH [ATN232, TRRHDWGH]
- IC50 (chicken gizzard Tpm; Table 5): 140 µM
- Inhibits Angiogenesis (Matrigel ® assay) [1]: Yes

Molecule: O=C(O)CNC(=O)[C@H](Cc1c[nH]cn1)NC(=O)[C@@H]1CCCN1C(=O)[C@H](Cc1c[nH]cn1)NC(=O)[C@H](Cc1c[nH]cn1)NCc1ccc(Cl)cc1 [ATN-276.000.01, 4-Chlorobenzyl] (H-[X3]HPHG-OH)
- IC50 (chicken gizzard Tpm; [3]): 23 µM

Molecule: APPHG [ATN246, APPHG]
- IC50 (chicken gizzard Tpm; Table 5): > 10000 µM

Molecule: PPPHG [ATN227, PPPHG]
- IC50 (chicken gizzard Tpm; Table 5): > 10000 µM

Molecule: Ac-PPPHG-NH2 [ATN229, c-PPPHG-c]
- IC50 (chicken gizzard Tpm; Table 5): > 10000 µM

Molecule: O=C(O)CNC(=O)[C@H](Cc1c[nH]cn1)NC(=O)[C@@H]1CCCN1C(=O)[C@H](Cc1c[nH]cn1)NC(=O)[C@H](Cc1c[nH]cn1)NC(=O)OCC1c2ccccc2-c2ccccc21 [ATN-278.000.01, Fmoc] (Fmoc-HHPHG-OH; C-terminus assumed)
- IC50 (chicken gizzard Tpm; [3]): 55 µM

— patent US20050124794A1, “Cell surface tropomyosin as a target of angiogenesis inhibition” (priority 2002, published 2005)
